Results from patent publication US20080039410A1, “Inositol 1,4,5-Trisphosphate Receptor Mutants and Uses Thereof” (priority 2004, published 2008).
Where no end group is shown, it is not given here. The star is where a group is joined. Myristoyl = CCCCCCCCCCCCCC(=O)*

Experiments:
S2+ InsP3R-1 [1] = experiment: Potentiation of CCh-induced Ca2+ release after PKA activation (forskolin), S2+ InsP3R-1 constructs in DT-40 3ko cells; type: cell-based, rat; settings: 30 min pretreatment, cells expressing S2+ InsP3R-1
Protocol: DT-40 cells lacking all three InsP3 receptor subtypes DT-40 3ko were transfected using electroporation, 350 V and 950 μF. 2×10^7 cells were co-transfected with 25 μg of the InsP3R cDNA, 25 μg of the muscarinic type 3 (M3) receptor, and 4 μg of the red fluorescent protein plasmid pHcRed1-N1. Cells were incubated with DNA in 500 μL of Optimem media on ice for 10 minutes. The cell/DNA mixture was electroporated, incubated on ice for 30 minutes, brought up to 5 ml with Optimem and placed in a 5% C02 incubator at 39° C. for 5 hours. The cells were then centrifuged and resuspended in 12 ml of complete RPMI media. Transfection efficiency was typically ˜20%. Experiments were performed within 32 hours of transfection.
(§1) Transfected DT-40 3ko cells were washed once in a HEPES-buffered physiological saline solution (HEPES-PSS) containing (in mM) 5.5 glucose, 137 NaCl, 0.56 MgCl2, 4.7 KCl, 1 Na2HPO4, 10 HEPES (pH 7.4), 1.2 CaCl2 and 1% w/v Bovine Serum Albumin. Cells were then resuspended in BSA HEPES-PSS with 1 μM Fura-2 (AM), placed on a 15 mm glass coverslip in a low volume perfusion chamber (Warner Instruments) and allowed to adhere for 30 minutes at room temperature. Cells were perfused continually for 10 minutes with HEPES-PSS before experimentation to allow Fura-2 de-esterification. A field of cells for each experiment was chosen that contained a wide range of transfection efficiency based upon the intensity of red fluorescence emitted when excited at 560 nm. [Ca^2+]i imaging was performed essentially as previously described using an inverted epifluorescence Nikon microscope with a 40× oil immersion objective lens (numerical aperture, 1.3). Cells were excited alternately with light at 340 and 380 nm (±10 mn bandpass filters, Chroma) using a monochrometer (TILL Photonics). Fluorescence images were captured and digitized with a digital camera driven by TILL Photonics software. Images were captured every 2 seconds with an exposure of 35 ms and no binning. 340/380 ratio images were calculated online and stored immediately to hard disk.
(§2) The effects of treatment were determined by normalizing the peak change in fluorescence ratio by stimulation following forskolin or 8-Br cGMP exposure to that of stimulation in control HEPES-PSS. Thus, pooled data represents a normalized fold increase over control for the treated trial. Two tailed heteroscedastic t-tests with P values<0.05 were considered to have statistical significance.
Experiments were performed in DT-40 3ko cells transfected with S2^+ InsP3R-1. Since there are no reports of Gαq coupled receptors expressed in DT-40 cells, initial experiments were performed eliciting [Ca^2+]i changes by stimulating the endogenous B cell receptor with α-IgM antibody. […] Thus, in all further experiments, DT-40 3ko cells were co-transfected with the M3 receptor, and HcRed to facilitate identification of transfected cells (inset FIG. 1). Stimulation of M3 receptors with the muscarinic agonist carbachol (CCh), provided a convenient means of stimulating [Ca^2+]i changes, presumably through Gαq-induced activation of phospholipase C and production of InsP3. […] The potentiation was most marked when threshold elevations in [Ca^2+]i were evoked by the initial exposure to CCh and therefore only cells in which the initial CCh treatment evoked a Δ 340/380 ratio of<0.2 ratio units were included for analysis. […] [Ca^2+]i changes were never evoked by CCh treatment in cells transfected with only M3 cDNA in the absence of InsP3R or likewise InsP3R with no M3 cDNA.
The effects of treatment were determined by normalizing the peak change in fluorescence ratio by stimulation following forskolin or 8-Br-cGMP exposure to that of stimulation in control HEPES-PSS. Thus, pooled data represent a normalized fold increase over control for the treated trial. In all cases where statistical significance is indicated, two-tailed heteroscedastic t tests were performed. […]

S2+ InsP3R-1 [2] = experiment: Potentiation of CCh-induced Ca2+ release after PKG activation (8-Br cGMP), S2+ InsP3R-1 constructs in DT-40 3ko cells; type: cell-based, rat; settings: 30 min pretreatment, cells expressing S2+ InsP3R-1
Protocol: as §1, §2
Similar experiments were performed to assess the effects on Ca^2+ release of phosphorylating InsP3R-1 with PKG. Cells transfected with S2^+ InsP3R-1 together with M3 receptor and HcRed were stimulated with low, threshold concentrations of CCh (25-50 nM) followed by a 10 min treatment with 10 μM 8-Br cGMP, a specific activator of PKG [48]. […] In a similar fashion to PKA activation, this was manifested as an increase in the CCh-induced initial peak (FIG. 4A and pooled data FIG. 4E).
The effects of treatment were determined by normalizing the peak change in fluorescence ratio by stimulation following forskolin or 8-Br-cGMP exposure to that of stimulation in control HEPES-PSS. Thus, pooled data represent a normalized fold increase over control for the treated trial. In all cases where statistical significance is indicated, two-tailed heteroscedastic t tests were performed. P values<0.05 were considered to indicate statistical significance and are denoted by an asterisk in the figures.
Despite these differences, experiments were performed to define further the phosphorylation sites important for regulation of Ca^2+ release by PKG. […] In contrast, in cells expressing S2+SE no effect on CCh-induced Ca^2+ release following activation of PKG was observed (FIG. 23C and pooled data in FIG. 23D).

InsP3R-III = experiment: PKA stimulation of Ca2+ signals in DT-40 3ko cells transfected with rat InsP3R-III; type: cell-based

Substance | effect of PKI on forskolin-induced enhancement of Ca^2+ release (S2+ InsP3R-1 [1]) | effect of PKI on forskolin-induced enhancement of Ca^2+ release (S2+ InsP3R-1 [1]; listed as myristolyated PKI) | effect of PKI on 8-Br cGMP-induced enhancement of Ca^2+ release (S2+ InsP3R-1 [2]) | effect of PKI on 8-Br cGMP-induced enhancement of Ca^2+ release (S2+ InsP3R-1 [2]; listed as myristolyated PKI) | effect of stimulating PKA on Ca^2+ signals (InsP3R-III)
PKI: cell-permeable PKA inhibitor, myristolyated PKI (Myristoyl-SGRTGRRNA; UniProt P61925 14-22, looked up, fragment) [reference compound] | completely abolishes | completely abolished | does not affect | did not alter | –
rat InsP3R-III: rat type 3 InsP3 receptor transfected into DT-40 3ko cells | – | – | – | – | inhibited
